Assay results: paper PMC6161602, “Synthesis and characterisation of (Z)-styrylbenzene derivatives as potential selective anticancer agents” (Journal of Enzyme Inhibition and Medicinal Chemistry, 2018)

Experiments:
[1] = tested on: HeLa cervical cancer cell; assay: MTT cell growth inhibition assay, HeLa; assay type: cell-based, human; details: Homo sapiens, 48 h incubation
Description: (§1) All human cell lines were used in this study. MGC-803 late-stage differentiation gastric cancer cell, A549 lung cancer cell, HepG2 hepatoma cell, AGS gastric cancer cell, BEL-7402 liver cancer cell, HCT-116 colorectal cancer cell, HeLa cervical cancer cell, SGC-7901 early differentiation gastric cancer cell, L-02 normal liver cell, MCF-7 breast cancer cell, and MCF-10A normal breast cell were initially purchased from American Type Culture Collection (ATCC, Manassas, VA, USA). RPMI-1640 media, Dulbecco’s modified Eagle’s medium (DMEM), and foetal bovine serum (FBS) were provided from Gibco Company (Grand Island, NY, USA). The cells were maintained in DMEM or RPMI-1640, supplemented with 10% FBS, 100 IU/mL penicillin and […] (Grand Island, NY, USA), and at 37 °C in a humidified atmosphere containing 5% CO2.
(§2) Cells were plated in 96-well plates at a density of 30–40% to ensure exponential growth throughout the experimental period, and then allowed to adhere for 1 day[21]. Next, the cells were treated with four serial concentrations (1, 10, 50, and 100 µM) of each compound. Taxol, CA-4, and CA-4P (phosphorylated form of CA-4) were used as positive controls. After 48 h incubation, MTT solution was added to each well at a final concentration of 2 mg/mL, and incubated for an additional 4 h. Next, the MTT solution was removed and 150 µL of dimethyl sulphoxide (DMSO)/well was added (Sigma-Aldrich, St Louis, MO, USA). The plates were shaken vigorously at RT to ensure complete solubilisation, and absorption at 492 nm was determined.
(§3) According to standard protocol, preliminary in vitro anti-proliferative activities of the synthesised compounds were evaluated by MTT assay, using nine human cancer cell lines (MGC-803, A549, HepG2, AGS, BEL-7402, HCT116, HeLa, SGC-7901, and MCF-7) and two normal human cell lines (L-02 and MCF-10A), and compared with those of CA-4, CA-4P, and taxol.

[2] = tested on: MCF-10A normal breast cell; assay: MTT cell growth inhibition assay, MCF-10A (normal); assay type: cell-based, human; details: Homo sapiens, 48 h incubation, MCF-10A normal cells
Description: as §1, §2, §3

[3] = tested on: SGC-7901 early differentiation gastric cancer cell; assay: MTT cell growth inhibition assay, SGC-7901; assay type: cell-based, human; details: Homo sapiens, 48 h incubation
Description: as §1, §2, §3

[4] = tested on: nine human cancer cell lines (MGC-803, A549, HepG2, AGS, BEL-7402, HCT116, HeLa, SGC-7901, and MCF-7); assay: MTT assay, panel of cell lines (result in words); assay type: cell-based; details: against all nine cancer cell lines
Description: as §1, §2, §3

HepG2 hepatoma cell = assay: MTT cell growth inhibition assay, HepG-2; assay type: cell-based, human; details: Homo sapiens, HepG2; MTT, 48 h incubation, HepG-2
Description: as §1, §2, §3

MCF-7 breast cancer cell = assay: MTT cell growth inhibition assay, MCF-7; assay type: cell-based, human; details: for IC50: Homo sapiens, MCF7, MTT, 48 h incubation, MCF-7
Description: as §1, §2, §3

AGS cells = assay: MTT cell growth inhibition assay, AGS; assay type: cell-based, human; details: for IC50: Homo sapiens, MTT, 48 h incubation, AGS; for SI IC50 (L-02/AGS): selectivity index, IC50 (L-02)/IC50 (AGS)
Description: as §1, §2, §3

MGC-803 cells = assay: MTT cell growth inhibition assay, MGC-803; assay type: cell-based, human; details: MTT, 48 h incubation, MGC-803
Description: as §1, §2, §3

HCT116 cells = assay: MTT cell growth inhibition assay, HCT116; assay type: cell-based, human; details: for IC50: Homo sapiens, HCT-116, MTT, 48 h incubation, HCT116; for SI IC50 (L-02/HCT116): selectivity index, IC50 (L-02)/IC50 (HCT116)
Description: as §1, §2, §3

BEL-7402 cells = assay: MTT cell growth inhibition assay, BEL-7402; assay type: cell-based, human; details: for IC50: Homo sapiens, MTT, 48 h incubation, Bel-7402; for SI IC50 (L-02/BEL-7402): selectivity index, IC50 (L-02)/IC50 (BEL-7402)
Description: as §1, §2, §3

A549 lung cancer cell = assay: MTT cell growth inhibition assay, A549; assay type: cell-based, human; details: Homo sapiens; MTT, 48 h incubation, A549
Description: as §1, §2, §3

L-02 normal liver cell = assay: MTT cell growth inhibition assay, L-02 (normal); assay type: cell-based, human; details: Homo sapiens, 48 h incubation, L-02 normal cells
Description: as §1, §2, §3

| Compound | IC50 [1] | IC50 [2] | melting point | IC50 [3] | in vitro anticancer activity [4] | IC50 (HepG2 hepatoma cell) | IC50 (MCF-7 breast cancer cell) | IC50 (AGS cells) | IC50 (MGC-803 cells; Homo sapiens, MGC-803, 48 h) | IC50 (HCT116 cells) | IC50 (BEL-7402 cells) | IC50 (A549 lung cancer cell) | IC50 (L-02 normal liver cell) | SI IC50 (L-02/HCT116) (HCT116 cells) | SI IC50 (L-02/BEL-7402) (BEL-7402 cells) | SI IC50 (L-02/AGS) (AGS cells) | IC50 (MGC-803 cells) | SI IC50 (MCF-10A/MCF-7) (MCF-7 breast cancer cell; selectivity index, IC50 (MCF-10A)/IC50 (MCF-7)) |
| --- | --- | --- | --- | --- | --- | --- | --- | --- | --- | --- | --- | --- | --- | --- | --- | --- | --- | --- |
| COc1cc(/C=C(\C#N)c2cc(OC)c(OC)c(OC)c2)cc(OC)c1OC [Compound 6e, (Z)-2,3-Bis(3,4,5-trimethoxyphenyl)acrylonitrile] | > 100 µM | 15.6 ± 2.45 µM | 84 to 86 °C | > 100 µM | weak anticancer activity | > 100 µM | 32.9 ± 17.6 µM | 44.6 ± 9.11 µM | > 100 µM | 32.1 ± 5.25 µM | 31.2 ± 2.01 µM | > 100 µM | 70.6 ± 7.65 µM | – | – | – | – | – |
| COc1cc(/C(C#N)=C/c2ccc(Oc3ccccc3)cc2)cc(OC)c1OC [Compound 6b] | > 100 µM | > 100 µM | 92 to 94 °C | > 100 µM | extremely poor | > 100 µM | > 100 µM | > 100 µM | > 100 µM | > 100 µM | > 100 µM | > 100 µM | > 100 µM | – | – | – | – | – |
| COc1cc(/C(C#N)=C/c2ccc([N+](=O)[O-])cc2)cc(OC)c1OC [Compound 6a, (Z)-3-(4-Nitrophenyl)-2-(3,4,5-trimethoxyphenyl)acrylonitrile] | > 100 µM | > 100 µM | 174 to 176 °C | > 100 µM | extremely poor | > 100 µM | > 100 µM | > 100 µM | > 100 µM | > 100 µM | > 100 µM | > 100 µM | > 100 µM | – | – | – | – | – |
| COc1cc(/C=C(\C#N)c2ccc(C)cc2)cc(OC)c1OC [Compound 13c, (Z)-2-(p-Tolyl)-3-(3,4,5-trimethoxyphenyl)acrylonitrile] | > 100 µM | > 100 µM | 135 to 137 °C | > 100 µM | – | > 100 µM | 33.9 ± 7.3 µM | 66.2 ± 3.65 µM | > 100 µM | 79.2 ± 5.21 µM | 77.3 ± 0.26 µM | > 100 µM | > 100 µM | – | – | – | – | – |
| COc1ccc(/C=C(\C#N)c2cc(OC)c(OC)c(OC)c2)cc1 [Compound 6d, (Z)-3-(4-Methoxyphenyl)-2-(3,4,5-trimethoxyphenyl)acrylonitrile] | > 100 µM | 3.07 ± 0.18 µM | 156 to 158 °C | > 100 µM | – | > 100 µM | 16.7 ± 4.77 µM | 0.05 ± 0.003 µM | 6.18 ± 0.36 µM | 1.51 ± 0.05 µM | 0.75 ± 0.21 µM | > 100 µM | 4.15 ± 4.16 µM | >2.7 | >5.5 | – | – | – |
| Cc1ccc(/C(C#N)=C/c2ccccc2)cc1 [Compound 13d, (Z)-3-Phenyl-2-(p-tolyl)acrylonitrile] | > 100 µM | > 100 µM | 145 to 147 °C | > 100 µM | – | > 100 µM | > 100 µM | > 100 µM | 89.2 ± 3.2 µM | > 100 µM | > 100 µM | > 100 µM | > 100 µM | – | – | – | – | – |
| CCc1ccc(/C=C(\C#N)c2ccc(C)cc2)cc1 [Compound 13b, (Z)-3-(4-Ethylphenyl)-2-(p-tolyl)acrylonitrile] | > 100 µM | 85.7 ± 3.12 µM | 112 to 114 °C | > 100 µM | – | > 100 µM | 35 ± 14.8 µM | 26.5 ± 3.89 µM | > 100 µM | > 100 µM | > 100 µM | > 100 µM | > 100 µM | – | – | – | – | – |
| Cc1ccc(/C(C#N)=C/c2ccccn2)cc1 [Compound 14b, (Z)-3-(Pyridin-2-yl)-2-(p-tolyl)acrylonitrile] | > 100 µM | > 100 µM | 102 to 104 °C | > 100 µM | – | > 100 µM | > 100 µM | > 100 µM | > 100 µM | > 100 µM | > 100 µM | > 100 µM | > 100 µM | – | – | – | – | – |
| CCc1ccc(/C=C(\C#N)c2cc(OC)c(OC)c(OC)c2)cc1 [Compound 6g, (Z)-3-(4-Ethylphenyl)-2-(3,4,5-trimethoxyphenyl)acrylonitrile] | > 100 µM | 1.19 ± 0.08 µM | 76 to 78 °C | > 100 µM | – | > 100 µM | > 100 µM | 4.38 ± 2.04 µM | 0.01 to 7.21 µM | 0.34 ± 0.01 µM | 0.65 ± 0.05 µM | > 100 µM | > 100 µM | >294.1 | >153.8 | >22.8 | < 0.01 µM | – |
| COc1cc(/C(C#N)=C/c2cccs2)cc(OC)c1OC [Compound 7a, (Z)-3-(Thiophen-2-yl)-2-(3,4,5-trimethoxyphenyl)acrylonitrile] | > 100 µM | 55.8 ± 10.4 µM | 102 to 104 °C | > 100 µM | – | > 100 µM | 15 ± 2 µM | 8.01 ± 1.65 µM | 0.67 ± 0.22 µM | 16.6 ± 10.3 µM | 1.82 ± 1.2 µM | > 100 µM | 21.2 ± 10.8 µM | >1.2 | >11.6 | >2.6 | – | >3.7 |
